Data on 19 molecules can be found in patent US20240254138A1, “TRICYCLIC PYRIMIDINES AS CYCLIN-DEPENDENT KINASE 7 (CDK7) INHIBITORS” (JANSSEN PHARMACEUTICA NV, priority 2021, published 2024).

The melting point is the temperature of the solid-liquid transition. In general, kinact refers to the maximal first-order rate at which the target is inactivated.

Data set [1] deals with RNA Polymerase II Serine 5 phosphorylation (Rpb1 CTD, downstream substrate of CDK7) in A549 cells. The data set can be described thus: Imaging-based cellular RNA PolII Ser5 phosphorylation assay in A549 cells. Format: cell-based, human. Conditions: wild-type CDK7, RNA PolII Ser5 phosphorylation, averaged over all measurements; for IC50: Homo sapiens, A549, A549 cells, read-out: CDK7_A549 Wild-type CDK7 (pIC50) (converted). In a few lines: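 IC50 derived by fitting % control (DMSO high, 10 μM reference low) against concentration, with Hill slope. Readout: high-content imaging of phospho-Ser5 Rpb1 CTD antibody staining in fixed, permeabilized A549 cells exposed to compound 3 h after 20 h culture in 1% FBS DMEM.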

For data set [2], the system named is RNA Polymerase II Serine 5 phosphorylation in A549 cells overexpressing CDK7-mutant (C312S). The data set can be described thus: Imaging-based cellular RNA PolII Ser5 phosphorylation assay in A549 cells overexpressing CDK7-mutant (C312S). Conditions: RNA PolII Ser5 phosphorylation, averaged over all measurements; for IC50: Homo sapiens, A549, A549 cells overexpressing CDK7-mutant (C312S), read-out: CDK7_A549 mutant hCDK7(pIC50) (converted); for CDK7_A549 mutant hCDK7(pIC50): A549 cells overexpressing CDK7-mutant (C312S). Format: cell-based, human. In a few lines: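 Readout was automated imaging of anti-phospho-Ser5 Rpb1 CTD immunofluorescence, with IC50 fitted to % control versus concentration. Cells were A549 stably overexpressing non-covalently targetable CDK7 C312S alongside wild-type, exposed to compound 3 h at 37 °C. DMSO and 10 μM reference compound served as controls.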

Data set [3] addresses CDK7/cyclinH/MAT1 trimeric complex (Homo sapiens, UniProt P50613). The data set can be described thus: In vitro CDK7 assay, potency of irreversible covalent inhibitors (kinact/KI), coupled PK/LDH ADP readout at 340 nm.
Where [4] appears, read: CDK7 (20 nM enz.) (KI, μM), 20 nM enzyme.
The mark [5] stands for this setting: read-out: CDK7 (20 nM enz.) (kinact, s^−1), 20 nM enzyme.
The mark [6] stands for this setting: read-out: CDK7 (20 nM enz.) (kinact/KI, M^−1*s^−1), 20 nM enzyme.
Where [7] appears, read: CDK7 (KI(μM)), […], 1 mM ATP, room temperature, averaged values over all measurements.
Where [8] appears, read: read-out: CDK7 (kinact, s^−1), kinact = maximal rate of inactivation, 1 mM ATP, room temperature, averaged values over all measurements.
[9] abbreviates: read-out: CDK7 (kinact/KI, M^−1*s^−1), potency of irreversible covalent inhibitors, 1 mM ATP, room temperature, averaged values over all measurements.
The mark [10] stands for this setting: read-out: CDK7 (20 nM enz.) (kobs/[I], M^−1*s^−1), 20 nM enzyme.

Molecules are shown by their SMILES. Read-outs that look alike come from different tables or passages of the source. Bounds are passed on as bounds.

CDK7/cyclinH/MAT1 trimeric complex, sequence (P50613 whole entry): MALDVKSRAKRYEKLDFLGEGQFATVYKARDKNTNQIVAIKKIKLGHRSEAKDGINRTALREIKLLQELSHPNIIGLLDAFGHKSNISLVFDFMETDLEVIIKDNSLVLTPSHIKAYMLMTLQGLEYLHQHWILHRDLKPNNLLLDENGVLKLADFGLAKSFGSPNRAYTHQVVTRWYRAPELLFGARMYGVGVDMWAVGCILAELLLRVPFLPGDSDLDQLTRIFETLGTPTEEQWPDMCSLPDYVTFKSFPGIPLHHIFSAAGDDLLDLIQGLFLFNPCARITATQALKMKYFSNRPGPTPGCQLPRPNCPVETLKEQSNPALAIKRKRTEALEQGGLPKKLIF
CDK7/cyclinH/MAT1 trimeric complex, sequence (P51946 whole entry partner): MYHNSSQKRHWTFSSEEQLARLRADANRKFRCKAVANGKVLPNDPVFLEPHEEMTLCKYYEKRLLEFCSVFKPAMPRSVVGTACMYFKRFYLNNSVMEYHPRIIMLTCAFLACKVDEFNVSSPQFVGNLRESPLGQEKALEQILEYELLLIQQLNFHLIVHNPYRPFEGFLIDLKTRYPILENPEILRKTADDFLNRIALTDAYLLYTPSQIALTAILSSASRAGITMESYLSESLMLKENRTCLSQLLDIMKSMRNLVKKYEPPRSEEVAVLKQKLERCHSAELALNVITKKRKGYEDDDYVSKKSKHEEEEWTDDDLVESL
CDK7/cyclinH/MAT1 trimeric complex, sequence (P51948 whole entry partner): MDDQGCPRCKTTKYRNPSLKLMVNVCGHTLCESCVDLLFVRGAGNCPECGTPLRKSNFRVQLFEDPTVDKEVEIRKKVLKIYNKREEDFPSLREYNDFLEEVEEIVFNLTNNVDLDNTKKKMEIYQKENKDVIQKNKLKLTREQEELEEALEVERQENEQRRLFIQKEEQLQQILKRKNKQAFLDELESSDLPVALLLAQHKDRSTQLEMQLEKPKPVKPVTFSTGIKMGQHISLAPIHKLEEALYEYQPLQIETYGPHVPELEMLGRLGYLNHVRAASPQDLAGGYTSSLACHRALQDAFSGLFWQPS

For `C=CC(=O)N1CC[C@H](N2CCC(c3ccc4c(c3)Nc3ncc(F)c(N5CCOCC5)c3CO4)CC2)C1` (single isomer, unassigned) [Compound 222], the melting point is 138 °C. Further, in data set [1], the IC50 is 97.7 nM. Further, the IC50 in data set [2] was > 10000 nM. The Ki in data set [3] (setting [4]) worked out at 0.18 µM. The kinact in data set [3] (setting [5]) worked out at 7.49e-05 s⁻¹. Further, the kinact/KI in data set [3] (setting [6]) came to 416 M⁻¹ s⁻¹.
With `C=CC(=O)N1CC[C@@H](N2CCC(c3ccc4c(c3)Nc3ncc(F)c(N5CCOCC5)c3CO4)CC2)C1` (single isomer, unassigned) [Compound 223], the melting point was 106 °C. Besides, in data set [1], the IC50 is 41.7 nM. Further, the IC50 in data set [2] is 7590 nM. The molecule further displayed a Ki in data set [3] (setting [4]) of 0.127 µM. In addition, the kinact in data set [3] (setting [5]) is 6.11e-05 s⁻¹. Further, the kinact/KI in data set [3] (setting [6]) was determined as 480 M⁻¹ s⁻¹.
Molecule `C=CC(=O)N1CC(N2CCC(c3cc4c(c(C)n3)O[C@H](C)c3c(N5CCOCC5)ccnc3N4)CC2)C1` (single isomer, unassigned) [Compound 262] returned a melting point of 225 °C. In addition, the IC50 in data set [1] is 29.5 nM. The IC50 in data set [2] is > 10000 nM. In data set [3] (setting [4]), this molecule returned a Ki of 0.0323 µM. The kinact in data set [3] (setting [5]) came out at 3.71e-05 s⁻¹. Further, in data set [3] (setting [6]), the kinact/KI came out at 1150 M⁻¹ s⁻¹.
With `C=CC(=O)N1CC(N2CCC(c3cc4c(cn3)O[C@H](C)c3c(N5CCOCC5)ccnc3N4)CC2)C1` (single isomer, unassigned) [Compound 263], the melting point was > 300 °C. Moreover, the IC50 in data set [1] was 51.3 nM. Further, the IC50 in data set [2] is > 3980 nM. For the same molecule, the Ki in data set [3] (setting [4]) amounted to 0.168 µM. For the same molecule, the kinact in data set [3] (setting [5]) is 5.18e-05 s⁻¹. Further, the kinact/KI in data set [3] (setting [6]) is 308 M⁻¹ s⁻¹.
On to `C#Cc1cc(C2CCN(C3CN(C(=O)C=C)C3)CC2)cc2c1O[C@H](C)c1c(N3CCOCC3)ccnc1N2` (single isomer, unassigned) [Compound 268], for which the melting point came to 236.7 °C. In data set [1], the IC50 was 1070 nM. For the same molecule, in data set [2], the IC50 was > 10000 nM. In data set [3] (setting [4]), this molecule yielded a Ki of 0.934 µM. Also, the kinact in data set [3] (setting [5]) came to 4.13e-05 s⁻¹. Moreover, the kinact/KI in data set [3] (setting [6]) was 44.2 M⁻¹ s⁻¹.
Consider `C=CC(=O)N1CC(N2CCC(c3cc(C#N)c4c(c3)Nc3nccc(N5CCOCC5)c3[C@H](C)O4)CC2)C1` (single isomer, unassigned) [Compound 353], for which the melting point amounted to 220.7 °C. In addition, the IC50 in data set [1] is 209 nM. In data set [2], the IC50 is > 10000 nM. In data set [3] (setting [4]), this molecule displayed a Ki of 4.52 µM. In addition, the kinact in data set [3] (setting [5]) was found to be 0.000132 s⁻¹. Besides, in data set [3] (setting [6]), the kinact/KI worked out at 29.2 M⁻¹ s⁻¹.
The molecule `C=C(C(=O)N1CC(N2CCC(c3cc4c(c(C)n3)O[C@@H](C)c3c(N5CCOCC5)ccnc3N4)CC2)C1)n1cccn1` (single isomer, unassigned) [Compound 523] showed a melting point of 148 °C. In data set [1], the IC50 was 97.7 nM. Besides, the IC50 in data set [2] was > 10000 nM. For the same molecule, the Ki in data set [3] (setting [4]) came to 0.0496 µM. The kinact in data set [3] (setting [5]) came out at 1.97e-05 s⁻¹. In addition, in data set [3] (setting [6]), the kinact/KI is 398 M⁻¹ s⁻¹.
`C=C(C(=O)N1CC(N2CCC(c3cc4c(c(C)n3)O[C@H](C)c3c(N5CCOCC5)ccnc3N4)CC2)C1)n1cccn1` (single isomer, unassigned) [Compound 526]: the melting point came to 131.3 °C. In data set [1], the IC50 is 14.1 nM. In addition, the IC50 in data set [2] was > 2510 nM. This molecule showed a Ki in data set [3] (setting [4]) of 0.0767 µM. Besides, the kinact in data set [3] (setting [5]) came out at 2.61e-05 s⁻¹. Besides, the kinact/KI in data set [3] (setting [6]) stood at 340 M⁻¹ s⁻¹.
`C=CC(=O)Nc1ccc(C(=O)Nc2ccc3c(c2)Nc2nccc(C4CCOCC4)c2CO3)cc1` [Compound 1] yielded a melting point of 281.1 °C. Further, the IC50 in data set [1] is 132 nM. The IC50 in data set [2] was ~8510 nM. For the same molecule, the Ki in data set [3] (setting [4]) worked out at 0.0456 µM. In data set [3] (setting [7]), the Ki was found to be 0.107 µM. Also, the kinact in data set [3] (setting [5]) stood at 5.77e-05 s⁻¹. Moreover, the kinact/KI in data set [3] (setting [6]) was determined as 1270 M⁻¹ s⁻¹. Moreover, the kinact in data set [3] (setting [8]) was determined as 0.0003 s⁻¹. Also, in data set [3] (setting [9]), the kinact/KI came to 2030 M⁻¹ s⁻¹.
For `C=CC(=O)N1CC(N2CCC(c3ccc4c(c3)OCc3c(N5CCOCC5)ccnc3N4)CC2)C1` [Compound 35], the melting point worked out at 117.9 °C. Moreover, the IC50 in data set [1] was 692 nM. Also, in data set [2], the IC50 is > 10000 nM. In data set [3] (setting [7]), the Ki came out at 0.123 µM. Moreover, the kinact in data set [3] (setting [8]) was found to be 0.000133 s⁻¹. In data set [3] (setting [9]), the kinact/KI was found to be 1090 M⁻¹ s⁻¹.
`C=CC(=O)N1CC(N2CCC(c3cc4c(cn3)OCc3c(N5CCOCC5)ccnc3N4)CC2)C1` [Compound 83]: the melting point is 238.4 °C. Further, in data set [1] (A549 cells), the “CDK7_A549 Wild-type CDK7 (pIC50)” value stood at 6.95. For the same molecule, the “CDK7_A549 mutant hCDK7(pIC50)” value in data set [2] is <5. For the same molecule, the kinact/KI in data set [3] (setting [10]) was 782 M⁻¹ s⁻¹.
Turning to `C=CC(=O)N1CC(N2CCC(c3cc4c(c(C)n3)OCc3c(-c5cnn(C)c5)ccnc3N4)CC2)C1` [Compound 164], the melting point was determined as 277.8 °C. In data set [1], the IC50 is 55 nM. Besides, in data set [2], the IC50 was > 10000 nM. Further, in data set [3] (20 nM enzyme), the “CDK7 (20 nM enz.) (kinact, s^−1)” value came to 7.933e-05 s⁻¹. In data set [3] (setting [4]), this molecule had a Ki of 0.0786 µM. The kinact/KI in data set [3] (setting [6]) was found to be 1010 M⁻¹ s⁻¹.
For the molecule `C=CC(=O)N1CC(N2CCC(c3cc4c(c(C)n3)OCc3c(N5CCOCC5)ccnc3N4)CC2)C1` [Compound 173], the melting point turned out to be 236.9 °C. The IC50 in data set [1] was 64.6 nM. Also, the “CDK7_A549 mutant hCDK7(pIC50)” value in data set [2] is listed as <5.4. The molecule also showed a Ki in data set [3] (setting [4]) of 0.0574 µM. Further, the inactivation rate constant (kinact) in data set [3] (setting [5]) came to 7.26e-05 s⁻¹. The kinact/KI in data set [3] (setting [6]) came out at 1260 M⁻¹ s⁻¹.
In turn, `C=CC(=O)N1CC(N2CCC(c3cc4c(c(C5CC5)n3)OCc3c(N5CCOCC5)ccnc3N4)CC2)C1` [Compound 272] registered a melting point of 189.9 °C. Moreover, the IC50 in data set [1] is 44.7 nM. Further, in data set [2], the IC50 is > 10000 nM. Besides, the Ki in data set [3] (setting [4]) came out at 0.0212 µM. Besides, in data set [3] (setting [5]), the kinact was found to be 2.13e-05 s⁻¹. In data set [3] (setting [6]), the kinact/KI is 1010 M⁻¹ s⁻¹.
For `CC#CC(=O)N1CC(N2CCC(c3cc4c(c(C)n3)OCc3c(N5CCOCC5)ccnc3N4)CC2)C1` [Compound 279], the melting point turned out to be 178.5 °C. For the same molecule, in data set [1], the IC50 was 138 nM. For the same molecule, the IC50 in data set [2] is > 10000 nM. The molecule also had a Ki in data set [3] (setting [4]) of 0.233 µM. Further, the kinact in data set [3] (setting [5]) stood at 2.96e-05 s⁻¹. Further, the kinact/KI in data set [3] (setting [6]) worked out at 127 M⁻¹ s⁻¹.
For the molecule `C=CC(=O)N1CC(N2CCC(c3cc4c(c(C#N)n3)OCc3c(N5CCOCC5)ccnc3N4)CC2)C1` [Compound 306], the melting point amounted to 256.7 °C. Also, the IC50 in data set [1] is 123 nM. Moreover, the IC50 in data set [2] was > 10000 nM. The kinact/KI in data set [3] (setting [10]) was determined as 1170 M⁻¹ s⁻¹.
On to `CC#CC(=O)N1CC(N2CCC(c3cc4c(c(-c5ncc[nH]5)n3)OCc3c(N5CCOCC5)ccnc3N4)CC2)C1` [Compound 369], for which the melting point amounted to 229.2 °C. The IC50 in data set [1] is 245 nM. In addition, the IC50 in data set [2] is > 10000 nM. Also, the Ki in data set [3] (setting [4]) stood at 0.0216 µM. Further, the kinact in data set [3] (setting [5]) was determined as 3e-05 s⁻¹. Also, in data set [3] (setting [6]), the kinact/KI amounted to 1390 M⁻¹ s⁻¹.
Turning to `C=CC(=O)N1CC(N2CCC(c3cc4c(c(-c5ncc[nH]5)n3)OCc3c(N5CCOCC5)ccnc3N4)CC2)C1` [Compound 378], the melting point was 195.5 °C. Besides, the IC50 in data set [1] was 162 nM. Also, the IC50 in data set [2] is > 3980 nM. Also, the kinact/KI in data set [3] (setting [10]) is 1740 M⁻¹ s⁻¹.
Molecule `CC#CC(=O)N1CC(N2CCC(c3cc4c(c(C5CC5)n3)OCc3c(N5CCOCC5)ccnc3N4)CC2)C1` [Compound 403] returned a melting point of 174.8 °C. Further, in data set [1], the IC50 is 155 nM. Moreover, the IC50 in data set [2] is > 10000 nM. The Ki in data set [3] (setting [4]) amounted to 0.0766 µM. Further, the kinact in data set [3] (setting [5]) is 4.63e-05 s⁻¹. Also, in data set [3] (setting [6]), the kinact/KI came out at 605 M⁻¹ s⁻¹.
